According to patent US20210127673A1, “HERBICIDES” (SYNGENTA PARTICIPATIONS AG, priority 2016, published 2021):

Columns and labels:
Assay type in all cases: in vivo
Conditions in all cases: evaluated after 13 days
[1] = test system: Setaria faberi (SETFA); test: Post-emergence herbicidal activity, Setaria faberi; design: key: 5=total damage to plant; 0=no damage to plant
In short: (§1)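 Post-em, 8 d plants, pots; acetone:water 1:1 + 0.5% Tween 20 spray; 24/16 °C, 14 h photoperiod, 65% RH; 13 d readout, 0–5 phytotoxicity scale.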

[2] = test system: Triticum aestivium (TRZAW); test: Pre-emergence herbicidal activity, Triticum aestivium; design: key: 5=total damage to plant; 0=no damage to plant
In short: (§2)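 Compound is applied as an aqueous spray (acetone/water 50:50, 0.5% Tween 20) to pots one day after sowing, before emergence. Growth continues in a glasshouse at 24/16 °C, 14 h photoperiod, 65% humidity, with twice-daily watering, and injury is graded after 13 days from 0 (no damage) to 5 (total damage).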

[3] = test system: Echinochloa crus-galli (ECHCG); test: Pre-emergence herbicidal activity, Echinochloa crus-galli
In short: as §2

[4] = test system: Avena fatua (AVEFA); test: Pre-emergence herbicidal activity, Avena fatua; design: key: 5=total damage to plant; 0=no damage to plant
In short: as §2

[5] = test system: Setaria faberi (SETFA); test: Pre-emergence herbicidal activity, Setaria faberi
In short: as §2

[6] = test system: Alopecurus myosuroides (ALOMY); test: Pre-emergence herbicidal activity, Alopecurus myosuroides; design: key: 5=total damage to plant; 0=no damage to plant
In short: as §2

[7] = test system: Lolium perenne (LOLPE); test: Pre-emergence herbicidal activity, Lolium perenne; design: key: 5=total damage to plant; 0=no damage to plant
In short: as §2

[8] = test system: Alopecurus myosuroides (ALOMY); test: Post-emergence herbicidal activity, Alopecurus myosuroides; design: key: 5=total damage to plant; 0=no damage to plant
In short: as §1

[9] = test system: Avena fatua (AVEFA); test: Post-emergence herbicidal activity, Avena fatua; design: key: 5=total damage to plant; 0=no damage to plant
In short: as §1

[10] = test system: Echinochloa crus-galli (ECHCG); test: Post-emergence herbicidal activity, Echinochloa crus-galli
In short: as §1

[11] = test system: Triticum aestivium (TRZAW); test: Post-emergence herbicidal activity, Triticum aestivium; design: key: 5=total damage to plant; 0=no damage to plant
In short: as §1

[12] = test system: Lolium perenne (LOLPE); test: Post-emergence herbicidal activity, Lolium perenne
In short: as §1

In the case of `CN(C(N)=O)c1ccc(-c2cncc(F)c2)nc1C(F)(F)F` [Compound B72], the “Control of SETFA after post-emergence application (score 0-5)” value ([1]; 1000 g/ha) is reported as 4, the “Control of TRAZW after pre-emergence application (score 0-5)” value ([2]; 1000 g/ha) is reported as 0 and the “Control of ECHCG after pre-emergence application (score 0-5)” value ([3]; 1000 g/ha) is reported as 2. For the same compound, the “Control of AVEFA after pre-emergence application (score 0-5)” value ([4]; 1000 g/ha) was 0, the “Control of SETFA after pre-emergence application (score 0-5)” value ([5]; 1000 g/ha) was 4 and the “Control of ALOMY after pre-emergence application (score 0-5)” value ([6]; 1000 g/ha) was 0. For the same compound, the “Control of LOLPE after pre-emergence application (score 0-5)” value ([7]; 1000 g/ha) was 0, the “Control of ALOMY after post-emergence application (score 0-5)” value ([8]; 1000 g/ha) was 1 and the “Control of AVEFA after post-emergence application (score 0-5)” value ([9]; 1000 g/ha) was 1. For the same compound, the “Control of ECHCG after post-emergence application (score 0-5)” value ([10]; 1000 g/ha) was 4, the “Control of TRAZW after post-emergence application (score 0-5)” value ([11]; 1000 g/ha) was 1 and the “Control of LOLPE after post-emergence application (score 0-5)” value ([12]; 1000 g/ha) was 1.

With `CNC(=O)N(C)c1ccc(-c2cncc(F)c2)nc1C(F)(F)F` [Compound B73] the “Control of SETFA after post-emergence application (score 0-5)” value ([1]; 1000 g/ha) was 4, the “Control of TRAZW after pre-emergence application (score 0-5)” value ([2]; 1000 g/ha) was 0 and the “Control of ECHCG after pre-emergence application (score 0-5)” value ([3]; 1000 g/ha) was 2. The “Control of AVEFA after pre-emergence application (score 0-5)” value ([4]; 1000 g/ha) was 0, the “Control of SETFA after pre-emergence application (score 0-5)” value ([5]; 1000 g/ha) was 4 and the “Control of ALOMY after pre-emergence application (score 0-5)” value ([6]; 1000 g/ha) was 0. For the same compound, the “Control of LOLPE after pre-emergence application (score 0-5)” value ([7]; 1000 g/ha) was 1, the “Control of ALOMY after post-emergence application (score 0-5)” value ([8]; 1000 g/ha) was 1 and the “Control of AVEFA after post-emergence application (score 0-5)” value ([9]; 1000 g/ha) was 3. The “Control of ECHCG after post-emergence application (score 0-5)” value ([10]; 1000 g/ha) was 4, the “Control of TRAZW after post-emergence application (score 0-5)” value ([11]; 1000 g/ha) was 1 and the “Control of LOLPE after post-emergence application (score 0-5)” value ([12]; 1000 g/ha) was 2.

`COC(=O)c1nc(-c2cncc(F)c2)ccc1N(C(=O)OC(C)(C)C)C(=O)OC(C)(C)C` [Compound B76, methyl 3-[bis(tert-butoxycarbonyl)amino]-6-(5-fluoro-3-pyridyl)pyridine-2-carboxylate] was tested, and the “Control of SETFA after post-emergence application (score 0-5)” value ([1]; 1000 g/ha) was 3, the “Control of TRAZW after pre-emergence application (score 0-5)” value ([2]; 1000 g/ha) was 0 and the “Control of ECHCG after pre-emergence application (score 0-5)” value ([3]; 1000 g/ha) was 1. For the same compound, the “Control of AVEFA after pre-emergence application (score 0-5)” value ([4]; 1000 g/ha) was 0, the “Control of SETFA after pre-emergence application (score 0-5)” value ([5]; 1000 g/ha) was 3 and the “Control of ALOMY after pre-emergence application (score 0-5)” value ([6]; 1000 g/ha) was 0. For the same compound, the “Control of LOLPE after pre-emergence application (score 0-5)” value ([7]; 1000 g/ha) was 0, the “Control of ALOMY after post-emergence application (score 0-5)” value ([8]; 1000 g/ha) was 0 and the “Control of AVEFA after post-emergence application (score 0-5)” value ([9]; 1000 g/ha) was 0. The “Control of ECHCG after post-emergence application (score 0-5)” value ([10]; 1000 g/ha) was 1, the “Control of TRAZW after post-emergence application (score 0-5)” value ([11]; 1000 g/ha) was 0 and the “Control of LOLPE after post-emergence application (score 0-5)” value ([12]; 1000 g/ha) was 1.

In the case of `COc1nc(-c2cncc(F)c2)ccc1NC(=O)OC(C)(C)C` [Compound B78], the “Control of SETFA after post-emergence application (score 0-5)” value ([1]; 1000 g/ha) is reported as 5, the “Control of TRAZW after pre-emergence application (score 0-5)” value ([2]; 1000 g/ha) is reported as 0 and the “Control of ECHCG after pre-emergence application (score 0-5)” value ([3]; 1000 g/ha) is reported as 2. The “Control of AVEFA after pre-emergence application (score 0-5)” value ([4]; 1000 g/ha) was 0, the “Control of SETFA after pre-emergence application (score 0-5)” value ([5]; 1000 g/ha) was 4 and the “Control of ALOMY after pre-emergence application (score 0-5)” value ([6]; 1000 g/ha) was 0. For the same compound, the “Control of LOLPE after pre-emergence application (score 0-5)” value ([7]; 1000 g/ha) was 1, the “Control of ALOMY after post-emergence application (score 0-5)” value ([8]; 1000 g/ha) was 0 and the “Control of AVEFA after post-emergence application (score 0-5)” value ([9]; 1000 g/ha) was 2. The “Control of ECHCG after post-emergence application (score 0-5)” value ([10]; 1000 g/ha) was 2, the “Control of TRAZW after post-emergence application (score 0-5)” value ([11]; 1000 g/ha) was 0 and the “Control of LOLPE after post-emergence application (score 0-5)” value ([12]; 1000 g/ha) was 1.

With `Cc1cc(CNC(=O)Nc2ccc(-c3cncc(F)c3)nc2C(F)(F)F)c(C(F)(F)F)o1` [Compound B79] the “Control of SETFA after post-emergence application (score 0-5)” value ([1]; 1000 g/ha) was 2, the “Control of TRAZW after pre-emergence application (score 0-5)” value ([2]; 1000 g/ha) was 0 and the “Control of ECHCG after pre-emergence application (score 0-5)” value ([3]; 1000 g/ha) was 2. The “Control of AVEFA after pre-emergence application (score 0-5)” value ([4]; 1000 g/ha) was 0, the “Control of SETFA after pre-emergence application (score 0-5)” value ([5]; 1000 g/ha) was 1 and the “Control of ALOMY after pre-emergence application (score 0-5)” value ([6]; 1000 g/ha) was 0. The “Control of LOLPE after pre-emergence application (score 0-5)” value ([7]; 1000 g/ha) was 1, the “Control of ALOMY after post-emergence application (score 0-5)” value ([8]; 1000 g/ha) was 0 and the “Control of AVEFA after post-emergence application (score 0-5)” value ([9]; 1000 g/ha) was 2. The “Control of ECHCG after post-emergence application (score 0-5)” value ([10]; 1000 g/ha) was 1, the “Control of TRAZW after post-emergence application (score 0-5)” value ([11]; 1000 g/ha) was 0 and the “Control of LOLPE after post-emergence application (score 0-5)” value ([12]; 1000 g/ha) was 1.

With `O=C(NCC1CCCCC1)Nc1ccc(-c2cncc(F)c2)nc1C(F)(F)F` [Compound B80] the “Control of SETFA after post-emergence application (score 0-5)” value ([1]; 250 g/ha) was 2, the “Control of TRAZW after pre-emergence application (score 0-5)” value ([2]; 250 g/ha) was 0 and the “Control of ECHCG after pre-emergence application (score 0-5)” value ([3]; 250 g/ha) was 1. The “Control of AVEFA after pre-emergence application (score 0-5)” value ([4]; 250 g/ha) was 1, the “Control of SETFA after pre-emergence application (score 0-5)” value ([5]; 250 g/ha) was 2 and the “Control of ALOMY after pre-emergence application (score 0-5)” value ([6]; 250 g/ha) was 0. For the same compound, the “Control of LOLPE after pre-emergence application (score 0-5)” value ([7]; 250 g/ha) was 2, the “Control of ALOMY after post-emergence application (score 0-5)” value ([8]; 250 g/ha) was 0 and the “Control of AVEFA after post-emergence application (score 0-5)” value ([9]; 250 g/ha) was 2. The “Control of ECHCG after post-emergence application (score 0-5)” value ([10]; 250 g/ha) was 1, the “Control of TRAZW after post-emergence application (score 0-5)” value ([11]; 250 g/ha) was 0 and the “Control of LOLPE after post-emergence application (score 0-5)” value ([12]; 250 g/ha) was 1.
